Source: publication PMC4026384, “Antibacterial Activity of THAM Trisphenylguanide against Methicillin-Resistant Staphylococcus aureus” (PLoS ONE, 2014)
In brackets after ≈: the same amount, converted by molar mass. Like-named read-outs stand apart in the source and are kept apart here.

Assays:
[1] = system: Acinetobacter baumannii ATCC 19606; experiment: Minimum inhibitory concentration (microdilution); assay type: cell-based; conditions: Acinetobacter baumannii, ATCC19606; A. baumannii ATCC 19606; LB media; median of at least 3 determinations; read-out: MIC
Protocol: (§1) Minimum inhibitory concentration (MIC) values were determined for those compounds showing the most antibacterial activity in the bacterial viability assays (see Supplemental Materials) against each of the strains of bacteria using a microdilution method in 96 well plates with LB media according to guidelines published by the British Society for Antimicrobial Chemotherapy. Minimum bactericidal concentrations (MBC) were determined by plating 10 µL and 100 µL from each well showing no signs of growth after overnight incubation of the MIC plates and determining the minimum concentration showing a 3-log reduction of viable bacteria. MIC and MBC were also determined in cation-adjusted Mueller-Hinton broth (Hardy Diagnostics, Santa Maria, CA) for some compounds and strains.

[2] = system: Acinetobacter baumannii ATCC BAA1605; experiment: Minimum inhibitory concentration (microdilution); assay type: cell-based; conditions: ATCCBAA1605, A. baumannii ATCC BAA1605, LB media, median of at least 3 determinations
Protocol: as §1

[3] = system: Enterococcus faecalis ATCC V583; experiment: Minimum inhibitory concentration (microdilution); assay type: cell-based; conditions: Enterococcus faecalis, ATCCV583; E. faecalis V583; LB media; median of at least 3 determinations; read-out: MIC
Protocol: as §1

[4] = system: Enterococcus faecalis MSU#10; experiment: Minimum inhibitory concentration (microdilution); assay type: cell-based; conditions: Enterococcus faecalis; E. faecalis MSU#10; LB media; median of at least 3 determinations; read-out: MIC
Protocol: as §1

[5] = system: Escherichia coli (strain K91); experiment: Minimum inhibitory concentration (microdilution); assay type: cell-based; conditions: E. coli K91
Protocol: as §1

[6] = system: Pseudomonas aeruginosa (strain PA01); experiment: Minimum inhibitory concentration (microdilution); assay type: cell-based; conditions: Pseudomonas aeruginosa; P. aeruginosa PA01; LB media; median of at least 3 determinations; read-out: MIC
Protocol: as §1

[7] = system: Staphylococcus aureus RN4220; experiment: Minimum inhibitory concentration (microdilution); assay type: cell-based; conditions: S. aureus RN4220
Protocol: as §1

E. coli K91 = experiment: Bacterial viability assay; assay type: cell-based, Escherichia coli; conditions: Escherichia coli, 1 h, one hour in PBS, CFU, ± SEM
Protocol: (§2) Supplementary file pone.0097742.s003.doc: Table S1 Bacterial viability assays. Bacteria were grown at 37°C to mid-log phase (OD600 ∼0.4). The bacteria were diluted to approximately 10^4 to 10^5 colony forming units (CFU) per milliliter and added to a solution of phosphate buffered saline (PBS, 16 mM phosphate, 0.14 M NaCl, pH 7.2) containing the compound at varied concentrations. Samples were incubated at 37°C for one hour and then plated on Luria Bertani (LB) agar at appropriate dilutions in PBS. The plates were incubated overnight at 37°C and colonies enumerated the following day. IC50s were calculated from graphs of CFU as a function of compound concentration. Chlorhexidine was used as a positive control. […] (DOC) Click here for additional data file.
(§3) Bacterial viability assays. Bacteria were grown at 37°C to mid-log phase (OD600 ~0.4). The bacteria were diluted to approximately 10^4 to 10^5 colony forming units (CFU) per milliliter and added to a solution of phosphate buffered saline (PBS, 16 mM phosphate, 0.14 M NaCl, pH 7.2) containing the compound at varied concentrations. Samples were incubated at 37°C for one hour and then plated on Luria Bertani (LB) agar at appropriate dilutions in PBS. The plates were incubated overnight at 37°C and colonies enumerated the following day. IC50s were calculated from graphs of CFU as a function of compound concentration. Chlorhexidine was used as a positive control.

P. aeruginosa PA01 = experiment: Bacterial viability assay; assay type: cell-based, Pseudomonas aeruginosa; conditions: Pseudomonas aeruginosa, 1 h, one hour in PBS, CFU, ± SEM
Protocol: as §2, §3

A. baumannii ATCC 19606 = experiment: Bacterial viability assay; assay type: cell-based, Acinetobacter baumannii; conditions: Acinetobacter baumannii, ATCC19606, 1 h, one hour in PBS, CFU, ± SEM
Protocol: as §2, §3

[8] = system: A. baumannii ATCC BAA1605; experiment: Bacterial viability assay; assay type: cell-based, Acinetobacter baumannii; conditions: Acinetobacter baumannii, ATCCBAA1605, 1 h, one hour in PBS, CFU, ± SEM
Protocol: as §2, §3

S. aureus RN4220 = experiment: Bacterial viability assay; assay type: cell-based, Staphylococcus aureus; conditions: Staphylococcus aureus, 1 h, one hour in PBS, CFU, ± SEM
Protocol: (§4) Supplementary file pone.0097742.s003.doc: Table S1 Bacterial viability assays. Bacteria were grown at 37°C to mid-log phase (OD600 ∼0.4). The bacteria were diluted to approximately 10^4 to 10^5 colony forming units (CFU) per milliliter and added to a solution of phosphate buffered saline (PBS, 16 mM phosphate, 0.14 M NaCl, pH 7.2) containing the compound at varied concentrations. Samples were incubated at 37°C for one hour and then plated on Luria Bertani (LB) agar at appropriate dilutions in PBS. The plates were incubated overnight at 37°C and colonies enumerated the following day. IC50s were calculated from graphs of CFU as a function of compound concentration. Chlorhexidine was used as a positive control. Included are those guanide (G), biguanide (BG), phenylguanide (ΦG) compounds that had some antibacterial activity in an initial screen at 30 and 100 µM, as well as their and parent amines. Compounds synthesized from 1,4-butanediamine, 1,6-hexanediamine, trisethylaminomelamine, trisbutylaminomelamine, and the dendrimer PAMAM (G0) were not active against E. coli, P aeruginosa, or S. aureus so they were not tested against the remaining bacteria (data not shown). (DOC) Click here for additional data file.
as §4, with “Bacterial” for “Supplementary file pone.0097742.s003.doc: Table S1 Bacterial”, “~0.4).” for “∼0.4).”, “μM,” for “µM,”, “shown).” for “shown). (DOC) Click here for additional data file.”

[9] = Escherichia coli, LB media, median of at least 3 determinations, read-out: MIC
[10] = Staphylococcus aureus, LB media, median of at least 3 determinations, read-out: MIC

`[H]/N=C(\N/C(=N/[H])NCCCCCCNC(=N)NC(=N)Nc1ccc(Cl)cc1)Nc1ccc(Cl)cc1` [Chlorhexidine, chlorhexidine, reference compound] gave an MIC [1] of 16 µg/mL (≈ 31.7 µM), an MIC [2] of 16 µg/mL (≈ 31.7 µM) and an MIC [3] of 6 µg/mL (≈ 11.9 µM). For the same compound, the MIC [4] was 4 µg/mL (≈ 7.91 µM), the MIC ([5]; MHB, median) was 0.44 µg/mL (≈ 0.87 µM) and the MIC [5, 9] was 1 µg/mL (≈ 1.98 µM). It also gave an MIC [6] of 8 µg/mL (≈ 15.8 µM), an MIC ([7]; MHB, median) of 0.89 µg/mL (≈ 1.76 µM) and an MIC [7, 10] of 1 µg/mL (≈ 1.98 µM). It also gave an IC50 (E. coli K91) of 1700 ± 600 nM, an IC50 (P. aeruginosa PA01) of 2600 ± 500 nM and an IC50 (A. baumannii ATCC 19606) of 1300 ± 200 nM. The IC50 [8] was 780 ± 310 nM and the IC50 (S. aureus RN4220) was 860 ± 210 nM.

`N=C(NCCCCCCNc1nc(NCCCCCCNC(=N)Nc2ccccc2)nc(NCCCCCCNC(=N)Nc2ccccc2)n1)Nc1ccccc1` [THAM-3ΦG, Trishexylaminomelamine trisphenylguanide] gave an MIC [1] greater than 256 µg/mL, an MIC [2] greater than 256 µg/mL and an MIC [3] of 256 µg/mL (≈ 329 µM). For the same compound, the MIC [4] was 32 µg/mL (≈ 41.1 µM), the MIC ([5]; MHB, median) was 8 µg/mL (≈ 10.3 µM) and the MIC [5, 9] was 8 µg/mL (≈ 10.3 µM). It also gave an MIC [6] of 48 µg/mL (≈ 61.7 µM), an MIC ([7]; MHB, median) of 1 µg/mL (≈ 1.29 µM) and an MIC [7, 10] of 2 µg/mL (≈ 2.57 µM). For the same compound, the IC50 (E. coli K91) was 3800 ± 1600 nM, the IC50 (P. aeruginosa PA01) was 4500 ± 2500 nM and the IC50 (A. baumannii ATCC 19606) was 860 ± 250 nM. For the same compound, the IC50 [8] was 4300 ± 1000 nM and the IC50 (S. aureus RN4220) was 1700 ± 900 nM.
